Experimental data taken from patent US8697705B2, “Isoindolinone derivatives” (Hoffmann-La Roche Inc., priority 2011, dated 2014).

Tests used:
[1] = target: T1, Recombinant human liver GK1 (GST-GK) (Homo sapiens, UniProt P35557); test: Glucokinase in vitro assay (G6PDH-coupled, NADH generation, OD340); type: biochemical; conditions: 30° C., 5 mM D-glucose, 10% dimethylsulfoxide
T1 construct: made in house; host or cells: E. coli
T1 sequence (P35557 1-466 isoform P35557-2): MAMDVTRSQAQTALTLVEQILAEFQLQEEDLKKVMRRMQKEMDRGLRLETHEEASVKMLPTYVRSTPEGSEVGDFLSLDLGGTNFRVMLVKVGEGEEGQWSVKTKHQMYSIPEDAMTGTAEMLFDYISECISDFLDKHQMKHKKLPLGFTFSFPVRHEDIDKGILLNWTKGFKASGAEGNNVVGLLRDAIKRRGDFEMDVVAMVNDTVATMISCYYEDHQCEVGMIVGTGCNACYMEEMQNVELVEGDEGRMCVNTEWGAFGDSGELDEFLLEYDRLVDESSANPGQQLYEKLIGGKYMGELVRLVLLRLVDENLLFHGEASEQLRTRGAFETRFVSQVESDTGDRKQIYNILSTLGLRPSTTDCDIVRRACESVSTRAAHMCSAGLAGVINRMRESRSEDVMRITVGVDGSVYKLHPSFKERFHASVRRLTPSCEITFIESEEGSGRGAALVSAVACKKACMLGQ
Procedure: Glucokinase In Vitro Assay Protocol:
Glucokinase (GK) was assayed by coupling the production of glucose-6-phosphate to the generation of NADH with glucose-6-phosphate dehydrogenase (G6PDH, 0.75-1 kunits/mg; Boehringer Mannheim, Indianapolis, Ind.) from Leuconostoc mesenteroides as the coupling enzyme (Scheme 2).
Recombinant human liver GK1 was expressed in E. coli as a glutathione S-transferase fusion protein (GST-GK) and was purified by chromatography over a glutathione-Sepharose 4B affinity column using the procedure provided by the manufacturer (Amersham Pharmacia Biotech, Piscataway, N.J.).
The assay was conducted at 30° C. in a flat bottom 96-well tissue culture plate from Costar (Cambridge, Mass.) with a final incubation volume of 120 μL. The incubation reaction contained the following: 25 mM Hepes buffer (pH 7.1), 25 mM KCl, 5 mM D-glucose, 1 mM ATP, 1.8 mM NAD, 2 mM MgCl2, 1 μM sorbitol-6-phosphate, 1 mM dithiothreitol, test drug or 10% dimethylsulfoxide, ˜7 units/ml G6PDH, and GK (see below). All organic reagents were >98% pure and were from Boehringer Mannheim with the exceptions of D-glucose and Hepes which were from Sigma Chemical Co, St Louis, Mo. Test compounds were dissolved in dimethylsulfoxide and were added to the incubation reaction minus GST-GK in a volume of 12 μL to yield a final dimethylsulfoxide concentration of 10%. This mix was pre-incubated in the temperature controlled chamber of a SPECTRAmax 250 microplate spectrophotometer (Molecular Devices Corporation, Sunnyvale, Calif.) for 10 minutes to allow temperature equilibrium and then the reaction was started by the addition of 20 μL GST-GK.
After addition of enzyme, the increase in optical density (OD) at 340 nm was monitored spectrophotometrically to determine the rate of change (OD340 per min). The GK activity (OD340/min) in control wells (10% dimethylsulfoxide minus GK activators) was compared with the activity in wells containing test GK activators, and the concentration of activator that produced a 50% increase in the activity of GK, i.e., the SC1.5, was calculated.

C57BL/6J mice = test: Glucokinase activator in vivo screen: blood glucose lowering after oral gavage in mice; conditions: Mus musculus; vs. control at 2 hours post 25 mg/kg oral dose, C57B6 mice; read-out: % gluc lowering @ 2 H
Procedure: Glucokinase Activator In Vivo Screen Protocol in Lean Mice:
Lean C57BL/6J mice were orally dosed via gavage with Glucokinase (GK) activator following a two hour fasting period. Blood glucose determinations were made at various (e.g. 0, 1, 2, 4 and 8 hours post-oral gavage) times during the study.
C57Bl/6J mice were obtained from Jackson Laboratory (Bar Harbor, Me.) and were maintained in a light-dark cycle with lights on from 0600-1800 hr. For studies in lean mice, the mice were received at age ten weeks and given ad libitum access to control diet (LabDiet 5001 chow, PMI Nutrition, Brentwood, Mo.), and were at least age 11 weeks at the time of study. For studies in the DIO model, the mice were received at age five weeks and given ad libitum access to Bio-Sery F3282 High Fat Diet (Frenchtown, N.J.), and were at least age 16 weeks at the time of study. The experiments were conducted during the light phase of the light-dark cycle. Mice (n=6) are weighed and fasted for a two hour period prior to oral treatment. GK activators are formulated in Gelucire vehicle (Ethanol:Gelucire44/14:PEG400q.s. 4:66:30 v/w/v). For studies in lean mice, the mice were dosed orally with 5.0 μL per gram of body weight (i.e. 5 ml/kg×10.0 mg/ml formulation to equal a 50 mg/kg dose). For studies in DIO mice, the mice were dosed orally with 5.0 μL per gram of body weight (i.e. 5.0 ml/kg×5 mg/ml formulation to equal a 25 mg/kg dose). Immediately prior to dosing, a pre-dose (time zero) blood glucose reading was acquired by snipping off a small portion of the animal's tail and collecting 15 μL blood into a heparinized capillary tube for analysis. Following GK activator administration, additional blood glucose readings were taken at various time points post dose from the same tail wound. Results were interpreted by comparing the mean blood glucose values of vehicle treated mice with GK activator treated mice over the study period.
Table 2 below provides data for % glucose lowering of a representative number of compounds of the present invention vs. control at 2 hours post 25 or 50 mg/kg dose in C57B6 mice: […]

SMILES	SC1.5 (concentration of activator that produced a 50% increase in the activity of GK) [1] [µM]	change in vivo at 25 mg/kg (C57BL/6J mice) [%]
Cn1ccc(NC(=O)[C@H](CC2CCCC2)N2Cc3c(cccc3C(F)(F)F)C2=O)n1 [Example 1, (S)-3-Cyclopentyl-N-(1-methyl-1H-pyrazol-3-yl)-2-(1-oxo-4-trifluoromethyl-1,3-dihydro-isoindol-2-yl)-propionamide]	0.187	-39.8
O=C(Nc1ccn(CCO)n1)[C@H](CC1CCCC1)N1Cc2c(cccc2C(F)(F)F)C1=O [Example 2, (S)-3-Cyclopentyl-N-[1-(2-hydroxy-ethyl)-1H-pyrazol-3-yl]-2-(1-oxo-4-trifluoromethyl-1,3-dihydro-isoindol-2-yl)-propionamide]	0.186	-38.8
CC(C)(C)OC(=O)Cn1ccc(NC(=O)[C@H](CC2CCCC2)N2Cc3c(cccc3C(F)(F)F)C2=O)n1 [Example 3, {3-[(S)-3-Cyclopentyl-2-(1-oxo-4-trifluoromethyl-1,3-dihydro-isoindol-2-yl)-propionylamino]-pyrazol-1-yl}-acetic acid tert-butyl ester]	0.244	
O=C(O)Cn1ccc(NC(=O)[C@H](CC2CCCC2)N2Cc3c(cccc3C(F)(F)F)C2=O)n1 [Example 4, {3-[(S)-3-Cyclopentyl-2-(1-oxo-4-trifluoromethyl-1,3-dihydro-isoindol-2-yl)-propionylamino]-pyrazol-1-yl}-acetic acid]	0.439	
O=C(Nc1ccn(C[C@@H](O)CO)n1)[C@H](CC1CCCC1)N1Cc2c(cccc2C(F)(F)F)C1=O [Example 5, (S)-3-Cyclopentyl-N-[1-((R)-2,3-dihydroxy-propyl)-1H-pyrazol-3-yl]-2-(1-oxo-4-trifluoromethyl-1,3-dihydro-isoindol-2-yl)-propionamide]	0.074	-50.1
O=C(Nc1ccn(C[C@H](O)CO)n1)[C@H](CC1CCCC1)N1Cc2c(cccc2C(F)(F)F)C1=O [Example 6, (S)-3-Cyclopentyl-N-[1-((S)-2,3-dihydroxy-propyl)-1H-pyrazol-3-yl]-2-(1-oxo-4-trifluoromethyl-1,3-dihydro-isoindol-2-yl)-propionamide]	0.119	-48.3
COCCn1ccc(NC(=O)[C@H](CC2CCCCC2)N2Cc3ccccc3C2=O)n1 [Example 8, (S)-3-Cyclohexyl-N-[1-(2-methoxy-ethyl)-1H-pyrazol-3-yl]-2-(1-oxo-1,3-dihydro-isoindol-2-yl)-propionamide]	3.526	
COCCn1ccc(NC(=O)[C@H](CC2CCCC2)N2Cc3ccccc3C2=O)n1 [Example 9, (S)-3-Cyclopentyl-N-[1-(2-methoxy-ethyl)-1H-pyrazol-3-yl]-2-(1-oxo-1,3-dihydro-isoindol-2-yl)-propionamide]	1.6	
COC(C)(C)Cn1ccc(NC(=O)[C@H](CC2CC2)N2Cc3ccccc3C2=O)n1 [Example 10, (S)-3-Cyclopropyl-N-[1-(2-methoxy-2-methyl-propyl)-1H-pyrazol-3-yl]-2-(1-oxo-1,3-dihydro-isoindol-2-yl)-propionamide]	20.625	
CC(C)OCCn1ccc(NC(=O)[C@H](CC2CCCC2)N2Cc3ccccc3C2=O)n1 [Example 11, (S)-3-Cyclopentyl-N-[1-(2-isopropoxy-ethyl)-1H-pyrazol-3-yl]-2-(1-oxo-1,3-dihydro-isoindol-2-yl)-propionamide]	2.091	
O=C(Nc1ccn(CCCO)n1)[C@H](CC1CCCC1)N1Cc2ccccc2C1=O [Example 12, (S)-3-Cyclopentyl-N-[1-(3-hydroxy-propyl)-1H-pyrazol-3-yl]-2-(1-oxo-1,3-dihydro-isoindol-2-yl)-propionamide]	1.857	
COC(C)(C)Cn1ccc(NC(=O)[C@H](CC2CCCC2)N2Cc3ccccc3C2=O)n1 [Example 14, (S)-3-Cyclopentyl-N-[1-(2-methoxy-2-methyl-propyl)-1H-pyrazol-3-yl]-2-(1-oxo-1,3-dihydro-isoindol-2-yl)-propionamide]	1.242	
O=C(Nc1cnc(Br)cn1)[C@H](CC1CCCC1)N1Cc2c(cccc2C(F)(F)F)C1=O [Example 16, (S)—N-(5-Bromo-pyrazin-2-yl)-3-cyclopentyl-2-(1-oxo-4-trifluoromethyl-1,3-dihydro-isoindol-2-yl)-propionamide]	0.062	
CC(C)(C)OC(=O)CCn1ccc(NC(=O)[C@H](CC2CCCC2)N2Cc3c(cccc3C(F)(F)F)C2=O)n1 [Example 19, 3-{3-[(S)-3-Cyclopentyl-2-(1-oxo-4-trifluoromethyl-1,3-dihydro-isoindol-2-yl)-propionylamino]-pyrazol-1-yl}-propionic acid tert-butyl ester]	0.334	
O=C(O)CCn1ccc(NC(=O)[C@H](CC2CCCC2)N2Cc3c(cccc3C(F)(F)F)C2=O)n1 [Example 20, 3-[3-[(S)-3-Cyclopentyl-2-(1-oxo-4-trifluoromethyl-1,3-dihydro-isoindol-2-yl)-propionylamino]-pyrazol-1-yl]-propionic acid]	0.457	
CSCC[C@@H](C(=O)Nc1cnc([C@H](O)CO)cn1)N1Cc2c(cccc2C(F)(F)F)C1=O [Example 22, (S)—N-[5-((S)-1,2-Dihydroxy-ethyl)-pyrazin-2-yl]-4-methylsulfanyl-2-(1-oxo-4-trifluoromethyl-1,3-dihydro-isoindol-2-yl)-butyramide]	14.914	
CC(C)C[C@@H](C(=O)Nc1cnccn1)N1Cc2c(cccc2C(F)(F)F)C1=O [Example 23, (S)-4-Methyl-2-(1-oxo-4-trifluoromethyl-1,3-dihydro-isoindol-2-yl)-pentanoic acid pyrazin-2-ylamide]	1.422	
CC(C)C[C@@H](C(=O)Nc1cnc([C@H](O)CO)cn1)N1Cc2c(cccc2C(F)(F)F)C1=O [Example 24, (S)-4-Methyl-2-(1-oxo-4-trifluoromethyl-1,3-dihydro-isoindol-2-yl)-pentanoic acid [5-((S)-1,2-dihydroxy-ethyl)-pyrazin-2-yl]-amide]	2.966	
